We go through 13 compounds from US10160755B2 (Plexxikon Inc., priority 2015, dated 2018).

Substitutions are numbered along the chain they refer to.

The target of test [1] is T1, BA/F3-FLT3-ITD + D835Y cells (Homo sapiens, UniProt P36888, D835Y, cells depend on it, form not given).
T1 sequence (P36888 1-993 D835Y): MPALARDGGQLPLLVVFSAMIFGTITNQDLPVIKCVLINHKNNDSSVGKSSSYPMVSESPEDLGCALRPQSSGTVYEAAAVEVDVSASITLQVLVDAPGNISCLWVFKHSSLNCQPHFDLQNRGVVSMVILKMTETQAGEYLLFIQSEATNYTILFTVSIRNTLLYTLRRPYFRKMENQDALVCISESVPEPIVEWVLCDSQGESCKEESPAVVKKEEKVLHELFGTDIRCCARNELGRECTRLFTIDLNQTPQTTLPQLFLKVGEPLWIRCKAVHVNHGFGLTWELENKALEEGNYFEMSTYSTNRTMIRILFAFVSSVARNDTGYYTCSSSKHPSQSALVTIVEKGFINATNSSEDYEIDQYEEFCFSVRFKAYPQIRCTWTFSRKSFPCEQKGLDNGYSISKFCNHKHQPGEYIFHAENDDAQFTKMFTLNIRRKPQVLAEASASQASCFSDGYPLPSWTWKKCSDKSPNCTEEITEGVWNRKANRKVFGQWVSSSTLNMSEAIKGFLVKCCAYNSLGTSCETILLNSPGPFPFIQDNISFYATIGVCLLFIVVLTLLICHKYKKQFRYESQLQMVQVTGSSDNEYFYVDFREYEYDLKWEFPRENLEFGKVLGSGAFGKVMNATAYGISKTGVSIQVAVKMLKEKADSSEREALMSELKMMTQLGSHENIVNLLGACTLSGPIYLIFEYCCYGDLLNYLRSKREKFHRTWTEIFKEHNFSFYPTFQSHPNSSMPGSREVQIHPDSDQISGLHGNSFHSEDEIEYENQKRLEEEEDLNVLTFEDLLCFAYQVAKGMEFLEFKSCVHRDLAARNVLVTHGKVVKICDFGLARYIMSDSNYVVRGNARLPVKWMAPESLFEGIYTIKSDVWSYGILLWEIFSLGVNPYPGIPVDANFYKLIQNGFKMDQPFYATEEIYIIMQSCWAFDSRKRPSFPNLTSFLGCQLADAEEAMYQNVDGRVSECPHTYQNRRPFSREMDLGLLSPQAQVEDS
Nature of the test: BA/F3-FLT3-ITD + D835Y cell proliferation assay (CellTiter-Glo). Type of test: cell-based, murine. As to conditions: BaF3 cells, read-out: BaF3_FLT3_ITD/D835Y IC50. An excerpt: The FLT3 inhibitors may also be assessed using leukemia cell lines that express endogenous FLT3-ITD or cells that are engineered to express wild-type or mutant FLT3. The cells expressing endogenous FLT3 are dependent upon FLT3 catalytic activity for growth. For the engineered cells, murine BA/F3 cells were transfected with full-length FLT3 (either wild-type, or containing the ITD, D835Y, or F691L mutations, as noted). The parental BA/F3 cells are dependent upon Interleukin-3 (IL-3) for survival, and introduction of the FLT3 constructs renders these cells dependent upon FLT3 kinase activity when cultured in the absence of IL-3. Engineered BA/F3 cell growth assays can be performed in either the absence or presence of IL-3, to assess the compound inhibition of FLT3 or to detect the presence of off-target activity, respectively. Inhibitors of FLT3 kinase activity reduce or eliminate the FLT3 oncogenic signaling, resulting in reduced cell proliferation. This inhibition is measured as a function of compound concentration to assess IC50 values.
Cells were seeded at 1×10^4 cells per well of a 96 well cell culture plate in 50 μl of cell culture medium. Compounds were dissolved in DMSO, typically at a concentration of 5 mM and were serially diluted 1:3 for a total of eight points and added to the cells to final concentrations of 10, 3.3, 1.1, 0.37, 0.12, 0.041, 0.014 and 0.0046 μM in 100 μl cell culture medium (final concentration 0.2% DMSO). […] The cells were incubated at 37° C., 5% CO2 for three days. CellTiter-Glo Buffer (Promega Cell Viability Assay catalog #G7573) and substrate were equilibrated to room temperature, and enzyme/substrate Recombinant Firefly Luciferase/Beetle Luciferin was reconstituted. […] The plates were read on a Tecan M1000 using Luminescence protocol modified to read 0.1 s per well. The luminescence reading assesses the ATP content, which correlates directly with cell number such that the reading as a function of compound concentration was used to determine the IC50 value.

For another test, the target named is c-Kit (Homo sapiens, UniProt P10721). In words: c-Kit biochemical assay (per US 2007/0032519). The procedure, abridged: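 Biochemical kinase inhibition run per US 2007/0032519; values reported as binned IC50 ranges (0.0001–1 μM, 1–10 μM, 10–200 μM).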
The next test has as its target T2, FLT3-ITD (Homo sapiens, UniProt P36888).
T2 construct: FLT3-ITD; Invitrogen #PV6190
T2 sequence (P36888 1-993): T1 sequence (P36888 1-993 D835Y) with Y835D
In words: FLT3-ITD biochemical kinase assay (AlphaScreen). The procedure, abridged:
(§1)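 First, recombinant FLT3 variant phosphorylates a biotinylated poly(Glu4-Tyr) peptide (30 nM) with ATP at 10 μM (D835Y) or 100 μM (ITD). Streptavidin donor beads are then added for 20 min at room temperature, followed by anti-phosphotyrosine PY20 acceptor beads for 60 min. Signal at 580 nm gives IC50.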

The target of another test is T3, FLT3-D835Y (Homo sapiens, UniProt P36888, D835Y).
T3 construct: purchased Invitrogen PV3967
T3 sequence (P36888 27-993 D835Y): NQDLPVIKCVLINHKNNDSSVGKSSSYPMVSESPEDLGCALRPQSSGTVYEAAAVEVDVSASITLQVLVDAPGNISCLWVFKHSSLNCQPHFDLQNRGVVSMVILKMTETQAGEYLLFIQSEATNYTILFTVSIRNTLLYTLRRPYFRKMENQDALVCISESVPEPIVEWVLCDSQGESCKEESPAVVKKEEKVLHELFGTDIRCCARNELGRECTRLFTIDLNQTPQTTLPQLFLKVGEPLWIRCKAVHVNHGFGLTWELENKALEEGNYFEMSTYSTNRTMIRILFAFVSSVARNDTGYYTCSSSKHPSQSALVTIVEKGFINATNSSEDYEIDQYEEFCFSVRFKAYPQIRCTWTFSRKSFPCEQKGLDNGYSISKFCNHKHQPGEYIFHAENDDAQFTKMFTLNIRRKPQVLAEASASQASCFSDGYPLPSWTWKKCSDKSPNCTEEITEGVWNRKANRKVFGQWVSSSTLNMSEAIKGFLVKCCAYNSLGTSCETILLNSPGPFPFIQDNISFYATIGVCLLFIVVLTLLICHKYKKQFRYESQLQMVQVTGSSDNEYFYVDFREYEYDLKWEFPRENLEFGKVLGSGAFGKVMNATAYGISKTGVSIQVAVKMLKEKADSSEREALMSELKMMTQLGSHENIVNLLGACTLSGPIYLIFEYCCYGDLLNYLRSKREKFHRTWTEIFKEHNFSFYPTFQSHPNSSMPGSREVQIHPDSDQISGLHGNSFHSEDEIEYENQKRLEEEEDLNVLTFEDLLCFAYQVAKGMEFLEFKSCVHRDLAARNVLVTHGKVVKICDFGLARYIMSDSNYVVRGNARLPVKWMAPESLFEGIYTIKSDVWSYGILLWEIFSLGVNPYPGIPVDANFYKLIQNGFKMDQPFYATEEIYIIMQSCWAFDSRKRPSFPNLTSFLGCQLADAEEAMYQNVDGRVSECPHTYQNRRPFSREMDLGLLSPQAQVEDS
In words: FLT3-D835Y biochemical kinase assay (AlphaScreen). The procedure, abridged:
as §1

c-Kit, sequence (P10721 26-976): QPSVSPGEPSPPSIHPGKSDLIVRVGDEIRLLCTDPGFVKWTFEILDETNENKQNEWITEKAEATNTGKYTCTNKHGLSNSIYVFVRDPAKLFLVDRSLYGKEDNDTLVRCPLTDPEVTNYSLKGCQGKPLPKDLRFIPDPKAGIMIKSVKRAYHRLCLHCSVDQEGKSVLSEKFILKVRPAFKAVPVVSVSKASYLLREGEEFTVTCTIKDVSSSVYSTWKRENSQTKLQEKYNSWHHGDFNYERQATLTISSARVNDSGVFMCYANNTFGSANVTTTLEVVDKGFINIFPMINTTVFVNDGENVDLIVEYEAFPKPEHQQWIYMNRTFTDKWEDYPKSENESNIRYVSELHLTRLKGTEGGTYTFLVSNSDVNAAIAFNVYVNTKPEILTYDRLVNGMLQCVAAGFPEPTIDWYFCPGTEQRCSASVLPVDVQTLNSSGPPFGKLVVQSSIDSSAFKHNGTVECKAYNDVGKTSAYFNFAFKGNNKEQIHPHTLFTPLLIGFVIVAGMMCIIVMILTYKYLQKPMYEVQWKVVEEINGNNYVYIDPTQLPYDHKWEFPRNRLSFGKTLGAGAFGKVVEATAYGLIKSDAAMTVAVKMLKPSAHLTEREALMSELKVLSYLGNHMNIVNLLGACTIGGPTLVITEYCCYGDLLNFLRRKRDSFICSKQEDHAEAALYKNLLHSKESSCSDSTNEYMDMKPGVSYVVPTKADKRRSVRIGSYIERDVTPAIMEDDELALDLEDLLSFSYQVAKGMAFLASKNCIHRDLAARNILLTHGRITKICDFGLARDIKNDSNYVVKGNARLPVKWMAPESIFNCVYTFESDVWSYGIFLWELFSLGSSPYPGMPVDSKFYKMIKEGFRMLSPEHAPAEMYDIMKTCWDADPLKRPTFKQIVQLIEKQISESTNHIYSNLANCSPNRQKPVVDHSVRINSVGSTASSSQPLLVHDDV

With `COc1cnc2[nH]cc(-c3ccc4ncsc4c3)c2c1` [Compound 3], in test [1], the GI50 was determined as 237 nM.
For the compound `COc1cnc2[nH]cc(-c3ccc4[nH]cnc4c3)c2c1` [Compound 2], in test [1], the GI50 was 225 nM.
Regarding `CS(=O)(=O)Nc1cccc(-c2cnc3[nH]cc(-c4ccc5ncsc5c4)c3n2)c1` [P-054, N-[3-[7-(1,3-benzothiazol-6-yl)-5H-pyrrolo[2,3-b]pyrazin-2-yl]phenyl]methanesulfonamide], the values for the IC50 at c-Kit, against FLT3-ITD and at FLT3-D835Y were 1 to 10 µM, 0.0001 to 1 µM and 0.0001 to 1 µM, respectively.
As to `c1cnc2[nH]cc(-c3ccc4[nH]ncc4c3)c2c1` [P-001, 3-(1H-indazol-5-yl)-1H-pyrrolo[2,3-b]pyridine], the IC50 lay in the range of 0.0001 to 1 µM on c-Kit, 1 to 10 µM on FLT3-ITD and 1 to 10 µM against FLT3-D835Y.
With `c1cnc2[nH]cc(-c3ccc4ncsc4c3)c2c1` [P-030, 6-(1H-pyrrolo[2,3-b]pyridin-3-yl)-1,3-benzothiazole], the IC50 on c-Kit was in the range of 1 to 10 µM; against FLT3-ITD, 0.0001 to 1 µM; on FLT3-D835Y, 0.0001 to 1 µM.
With `CS(=O)(=O)Nc1cccc(-c2cnc3[nH]cc(-c4ccc5c(c4)NCCO5)c3n2)c1` [P-085, N-[3-[7-(3,4-dihydro-2H-1,4-benzoxazin-6-yl)-5H-pyrrolo[2,3-b]pyrazin-2-yl]phenyl]methanesulfonamide], the IC50 was 1 to 10 µM on c-Kit, 0.0001 to 1 µM against FLT3-ITD and 0.0001 to 1 µM against FLT3-D835Y.
`Clc1cnc2[nH]cc(-c3ccc4nc[nH]c4c3)c2c1` [P-035, 3-(3H-benzimidazol-5-yl)-5-chloro-1H-pyrrolo[2,3-b]pyridine]: the IC50 against c-Kit lay in the range of 1 to 10 µM; on FLT3-ITD it was 0.0001 to 1 µM; against FLT3-D835Y, 0.0001 to 1 µM.
As for `COc1cnc2[nH]cc(-c3ccc4ncn(C5CCCC5)c4c3)c2c1` [P-049, 1-cyclopentyl-6-(5-methoxy-1H-pyrrolo[2,3-b]pyridin-3-yl)benzimidazole], the IC50 at c-Kit was 1 to 10 µM; on FLT3-ITD, 0.0001 to 1 µM; on FLT3-D835Y it was 0.0001 to 1 µM.
On to `Cn1cnc2ccc(-c3c[nH]c4ncc(C5=CCN(C(=O)C6CC6)C5)cc34)cc21` [P-130, cyclopropyl-[3-[3-(3-methylbenzimidazol-5-yl)-1H-pyrrolo[2,3-b]pyridin-5-yl]-2,5-dihydropyrrol-1-yl]methanone], for which the IC50 lay within 10 to 200 µM against c-Kit, 0.0001 to 1 µM against FLT3-ITD and 0.0001 to 1 µM at FLT3-D835Y.
For the compound `COc1cnc2[nH]cc(-c3ccc4[nH]ccc4c3)c2c1` [Compound 1, reference compound], the GI50 in test [1] was found to be 839 nM.
Regarding `COc1cnc2[nH]cc(-c3ccc4scnc4c3)c2c1` [P-051, 5-(5-methoxy-1H-pyrrolo[2,3-b]pyridin-3-yl)-1,3-benzothiazole], the IC50 on c-Kit was 10 to 200 µM; against FLT3-ITD, 0.0001 to 1 µM; against FLT3-D835Y, 0.0001 to 1 µM.
`COc1ncc(-c2cnc3[nH]cc(-c4ccc5ncn(C(C)(C)C)c5c4)c3n2)cc1F` [P-385, 7-(3-tert-butylbenzimidazol-5-yl)-2-(5-fluoro-6-methoxy-3-pyridyl)-5H-pyrrolo[2,3-b]pyrazine]: the IC50 at c-Kit, against FLT3-ITD and at FLT3-D835Y was 0.0001 to 1 µM throughout.
Turning to `Cn1cnc2ccc(-c3c[nH]c4ncc(-c5cccc(C(F)(F)F)c5)cc34)cc21` [P-132, 1-methyl-6-[5-[3-(trifluoromethyl)phenyl]-1H-pyrrolo[2,3-b]pyridin-3-yl]benzimidazole], the figures for the IC50 on c-Kit, at FLT3-ITD and at FLT3-D835Y were 10 to 200 µM, 0.0001 to 1 µM and 0.0001 to 1 µM, respectively.
